In patent US11345713B2, “Compounds as modulators of TLR2 signaling” (Neuropore Therapies, inc., priority 2018, dated 2022):

Assays:
[1] = target: T1, human TLR2 (Pam2CSK4, TLR2/6 agonist) in HEK-Blue hTLR2 cells (Homo sapiens, UniProt O60603); experiment: HEK-Blue hTLR2 antagonism assay (SEAP reporter) with Pam2CSK4 as agonist; type: cell-based; conditions: 2 h compound pre-incubation, approx. 3×EC50 Pam2CSK4, 18 h, SEAP OD 655 nm, background subtracted
T1 construct: host or cells: HEK-Blue hTLR2 (HEK-293)
T1 sequence (O60603 19-784 limits assumed): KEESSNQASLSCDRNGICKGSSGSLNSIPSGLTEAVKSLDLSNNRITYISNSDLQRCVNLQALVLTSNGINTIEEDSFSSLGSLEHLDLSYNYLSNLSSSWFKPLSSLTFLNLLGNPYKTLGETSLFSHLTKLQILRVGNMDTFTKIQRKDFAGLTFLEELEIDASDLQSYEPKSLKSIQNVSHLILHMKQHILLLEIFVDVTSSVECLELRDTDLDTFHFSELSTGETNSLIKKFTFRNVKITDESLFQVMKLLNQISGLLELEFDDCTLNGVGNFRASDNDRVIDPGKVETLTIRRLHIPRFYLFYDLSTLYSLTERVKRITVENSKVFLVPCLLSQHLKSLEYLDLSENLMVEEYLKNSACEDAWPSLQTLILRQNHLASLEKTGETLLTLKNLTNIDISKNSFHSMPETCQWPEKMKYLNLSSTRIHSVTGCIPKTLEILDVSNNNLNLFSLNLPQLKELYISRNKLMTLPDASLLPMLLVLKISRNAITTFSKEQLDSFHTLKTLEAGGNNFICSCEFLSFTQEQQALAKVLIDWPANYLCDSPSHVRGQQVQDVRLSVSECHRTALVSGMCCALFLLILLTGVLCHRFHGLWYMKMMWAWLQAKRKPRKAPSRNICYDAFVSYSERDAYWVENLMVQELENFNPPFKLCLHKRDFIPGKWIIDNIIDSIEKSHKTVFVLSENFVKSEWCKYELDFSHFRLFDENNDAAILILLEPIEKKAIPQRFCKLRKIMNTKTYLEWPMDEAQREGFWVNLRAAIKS
Method: (§1) Synthetic diacylated lipoprotein (Pam2CSK4, TLR2/6 agonist) and synthetic triacylated lipoprotein (Pam3CSK4, TLR1/2 agonist) were obtained from InvivoGen and were dissolved in endotoxin-free water to a concentration 1 mg/mL, vortexed until complete solubilization, and stored in aliquots at −20° C. Prior to addition to cells, an aliquot of the dissolved ligand was vortexed shortly and then was diluted in medium to 25 ng/mL Pam2CSK4 or 1000 ng/mL Pam3CSK4. The EC50 of the agonists for each assay run was determined by using 3-fold dilutions of each agonist from the following starting concentrations: 5 ng/mL for Pam2CSK4, and 200 ng/mL for Pam3CSK4.
(§2) Test compounds were solubilized fresh to 10-20 mM stocks in DMSO and sonicated for 5-10 minutes in a water bath sonicator. Serial dilutions were prepared in DMSO, and then diluted in medium. The final concentration of DMSO used in the assay was 1%.
(§3) HEK-Blue hTLR2 reporter cells (InvivoGen) are HEK-293 cells stably expressing both the human TLR2 gene and a secreted embryonic alkaline phosphatase (SEAP) reporter construct downstream of NFκB promotor sites. HEK-Blue hTLR2 reporters were cultured according to manufacturer's protocol using Dulbecco's Modified Eagle Medium (DMEM; Gibco) containing 1× GlutaMax (Gibco), 10% heat-inactivated Fetal Bovine Serum (Gibco), Pen-Strep (50 U/mL penicillin, 50 μg/mL streptomycin, Gibco), 100 μg/mL Normocin (InvivoGen), and the selective antibiotic, 1× HEK-Blue Selection (InvivoGen). Quanti-Blue reagent (InvivoGen) for detection and quantification of secreted alkaline phosphatase was dissolved in 100 mL of endotoxin-free water, warmed to 37° C. for 30 minutes and then filtered using a 0.2 μm membrane.
(§4) On day 1, 50 μL of each test compound dilution in duplicates or a vehicle control was added to each well of a 96-well plate followed by addition of 150 μL of HEK-Blue hTLR2 cell suspension (1×10^5 cells/well) and incubated at 37° C./5% CO2 for 2 h. Next, 50 μL of an approximate 3×EC50 concentration of each agonist (Pam2CSK4 or Pam3CSK4) was added to the wells containing test compounds or the vehicle control. The plates were then incubated at 37° C./5% CO2 for 18 h. For each assay run, non-treated HEK-Blue hTLR2 cells were treated with serial dilutions of agonists to determine EC50 values for the respective run.
(§5) On day 2, secreted alkaline phosphatase (SEAP) activity was detected in cell culture supernatants. In brief, 20 μL was collected from each well and transferred to a 96-well plate. Next, 200 μL of Quanti-Blue detection reagent was added to each well. Plates were incubated at room temperature for 15 min and SEAP activity was assessed by spectrophotometer OD reading at 655 nm. […] The activities of the compounds against Pam2CSK4 and Pam3CSK4 are presented as IC50 values for the response from cells treated with agonists with the background signal subtracted.

[2] = target: T2, human TLR2 (Pam3CSK4, TLR1/2 agonist) in HEK-Blue hTLR2 cells (Homo sapiens, UniProt O60603); experiment: HEK-Blue hTLR2 antagonism assay (SEAP reporter) with Pam3CSK4 as agonist; type: cell-based; conditions: 2 h compound pre-incubation, approx. 3×EC50 Pam3CSK4, 18 h, SEAP OD 655 nm, background subtracted
T2 construct: host or cells: HEK-Blue hTLR2 (HEK-293)
T2 sequence (O60603 19-784 limits assumed): as above
Method: as §1, §2, §3, §4, §5

Compound | IC50 [1] [µM] | IC50 [2] [µM]
O=Cc1cc(/C=C/c2ccc(OCC3CC3)cc2)cc(F)c1O [compound 66, (E)-5-(4-(cyclopropylmethoxy)styryl)-3-fluoro-2-hydroxybenzaldehyde] | 0.9 | 0.3
COc1cc(/C=C/c2ccc3c(c2)CCCO3)cc(C=O)c1O [compound 67, (E)-5-(2-(chroman-6-yl)vinyl)-2-hydroxy-3-methoxybenzaldehyde] | 1.7 | 1.2
O=Cc1cc(/C=C/c2ccc3c(c2)CCCO3)cc(F)c1O [compound 68, (E)-5-(2-(chroman-6-yl)vinyl)-3-fluoro-2-hydroxybenzaldehyde] | 1.6 | 1.3
COc1cc(/C=C/c2ccc(N3CCCCC3)cc2)cc(C=O)c1O [compound 69, (E)-2-hydroxy-3-methoxy-5-(4-(piperidin-1-yl)styryl)benzaldehyde] | 0.7 | 0.6
O=Cc1cc(/C=C/c2ccc(N3CCCCC3)cc2)cc(F)c1O [compound 70, (E)-3-fluoro-2-hydroxy-5-(4-(piperidin-1-yl)styryl)benzaldehyde] | 0.9 | 0.4
O=Cc1c(O)cc(/C=C/c2ccc(N3CCCCC3)cc2)cc1F [compound 71, (E)-2-fluoro-6-hydroxy-4-(4-(piperidin-1-yl)styryl)benzaldehyde] | 13.7 | 2.5
CCN1CCN(c2ccc(/C=C/c3cc(O)c(C=O)c(F)c3)cc2)CC1 [compound 72, (E)-4-(4-(4-ethylpiperazin-1-yl)styryl)-2-fluoro-6-hydroxybenzaldehyde] | 8.2 | 11.2
COc1cc(-c2cc3c(s2)CCN(C(=O)C2CC2)C3)cc(/C=C/C(=O)c2ccccc2)c1O [compound 73, (E)-3-(5-(5-(cyclopropanecarbonyl)-4,5,6,7-tetrahydrothieno[3,2-c]pyridin-2-yl)-2-hydroxy-3-methoxyphenyl)-1-phenylprop-2-en-1-one] | 4.5 | 4.8
COc1cc(-c2cc3c(s2)CCN(C(=O)C2CC2)C3)cc(C(=O)/C=C/c2ccccc2)c1O [compound 74, (E)-1-(5-(5-(cyclopropanecarbonyl)-4,5,6,7-tetrahydrothieno[3,2-c]pyridin-2-yl)-2-hydroxy-3-methoxyphenyl)-3-phenylprop-2-en-1-one] | 6.3 | 7
Oc1c(F)cc(/C=C/c2ccc(N3CCCC3)cc2)cc1C1OCCCO1 [compound 75, (E)-2-(1,3-dioxan-2-yl)-6-fluoro-4-(4-(pyrrolidin-1-yl)styryl)phenol] | 1.2 | 1.3
CN1CCN(/N=C/c2cc(/C=C/c3ccc(N4CCCC4)cc3)cc(F)c2O)CC1 [compound 76, 2-fluoro-6-((E)-((4-methylpiperazin-1-yl)imino)methyl)-4-((E)-4-(pyrrolidin-1-yl)styryl)phenol] | 0.4 | 0.5
CC(=O)N/N=C/c1cc(/C=C/c2ccc(N3CCCC3)cc2)cc(F)c1O [compound 77, N′-((E)-3-fluoro-2-hydroxy-5-((E)-4-(pyrrolidin-1-yl)styryl)benzylidene)acetohydrazide] | 1.4 | 1.1
Oc1c(F)cc(/C=C/c2ccc(N3CCCC3)cc2)cc1/C=N/c1ccccc1 [compound 78, 2-fluoro-6-((E)-(phenylimino)methyl)-4-((E)-4-(pyrrolidin-1-yl)styryl)phenol] | 1 | 0.9
Oc1c(F)cc(/C=C/c2ccc(N3CCCC3)cc2)cc1/C=N/Nc1ccccc1 [compound 79, 2-fluoro-6-((E)-(2-phenylhydrazono)methyl)-4-((E)-4-(pyrrolidin-1-yl)styryl)phenol] | 4.4 | 6
O=C(N/N=C/c1cc(/C=C/c2ccc(N3CCCC3)cc2)cc(F)c1O)c1ccccc1 [compound 80, N′-((E)-3-fluoro-2-hydroxy-5-((E)-4-(pyrrolidin-1-yl)styryl)benzylidene)benzohydrazide] | 28.4 | 14.8
O=S(=O)(N/N=C/c1cc(/C=C/c2ccc(N3CCCC3)cc2)cc(F)c1O)c1ccccc1 [compound 81, N′-((E)-3-fluoro-2-hydroxy-5-((E)-4-(pyrrolidin-1-yl)styryl)benzylidene)benzenesulfonohydrazide] | 16.4 | 13.2
Oc1c(F)cc(/C=C/c2ccc(N3CCCC3)cc2)cc1/C=N/Oc1ccccc1 [compound 82, (E)-3-fluoro-2-hydroxy-5-((E)-4-(pyrrolidin-1-yl)styryl)benzaldehyde O-phenyl oxime] | 2.1 | 2.1
N=C(N)N/N=C/c1cc(/C=C/c2ccc(N3CCCC3)cc2)cc(F)c1O [compound 83, 2-((E)-3-fluoro-2-hydroxy-5-((E)-4-(pyrrolidin-1-yl)styryl)benzylidene)hydrazine-1-carboximidamide] | 36.7 | 88.9
COc1cc(/C=C/C(=O)c2ccccc2)cc(C(=O)/C=C/c2ccccc2)c1O [compound 84, (E)-3-(3-cinnamoyl-4-hydroxy-5-methoxyphenyl)-1-phenylprop-2-en-1-one] | 3.4 | 3.1
C[N+]1([O-])CCN(/N=C/c2cc(/C=C/c3ccc(N4CCCC4)cc3)cc(F)c2O)CC1 [compound 85, 4-(((E)-3-fluoro-2-hydroxy-5-((E)-4-(pyrrolidin-1-yl)styryl)benzylidene)amino)-1-methylpiperazine 1-oxide] | 4.5 | 1.9
O=Cc1cc(/C=C/c2ccc(N3CCCC3)nc2)cc(F)c1O [compound 86, (E)-3-fluoro-2-hydroxy-5-(2-(6-(pyrrolidin-1-yl)pyridin-3-yl)vinyl)benzaldehyde] | 3.8 | 4.1
O=Cc1cc(/C=C/c2ccc(N3CCCC3)cn2)cc(F)c1O [compound 87, (E)-3-fluoro-2-hydroxy-5-(2-(5-(pyrrolidin-1-yl)pyridin-2-yl)vinyl)benzaldehyde] | 3.9 | 3.3
O=C1CN(/N=C/c2cc(/C=C/c3ccc(N4CCCC4)cc3)cc(F)c2O)C(=O)N1 [compound 88, 1-(((E)-3-fluoro-2-hydroxy-5-((E)-4-(pyrrolidin-1-yl)styryl)benzylidene)amino)imidazolidine-2,4-dione] | 11.2 | 7.9
CCO/N=C/c1cc(/C=C/c2ccc(N3CCCC3)cc2)cc(F)c1O [compound 89, (E)-3-fluoro-2-hydroxy-5-((E)-4-(pyrrolidin-1-yl)styryl)benzaldehyde O-ethyl oxime] | 29.5 | 29.6
OCc1cc(/C=C/c2ccc(N3CCCC3)cc2)cc(F)c1O [compound 90, (E)-2-fluoro-6-(hydroxymethyl)-4-(4-(pyrrolidin-1-yl)styryl)phenol] | 5.4 | 8.5
Oc1c(F)cc(/C=C/c2ccc(N3CCCC3)cc2)cc1CNC1CC1 [compound 91, (E)-2-((cyclopropylamino)methyl)-6-fluoro-4-(4-(pyrrolidin-1-yl)styryl)phenol] | 30.6 | 82.1
Oc1c(F)cc(/C=C/c2ccc(N3CCCC3)cc2)cc1/C=N/N1CCN(C2CC2)CC1 [compound 92, 2-((E)-((4-cyclopropylpiperazin-1-yl)imino)methyl)-6-fluoro-4-((E)-4-(pyrrolidin-1-yl)styryl)phenol] | 26.6 | 32.3
